Experimental data reported in ChEMBL document CHEMBL4304834, “3-Amino-chromanes and Tetrahydroquinolines as Selective 5-HT2B, 5-HT7, or σ1 Receptor Ligands” (ACS Med Chem Lett, 2019).

Species: Homo sapiens
Test: Selectivity index, ratio of Ki for human recombinant 5-HT1D receptor to Ki for human recombinant sigma1 receptor

Work on COc1cc(OC)c2c(c1)OC[C@@]1(C)NCC[C@@H]21 (racemic) yielded a Ratio Ki greater than 20.
